Source: patent US8222261B2, “Chemical compounds” (GlaxoSmithKline, LLC, priority 2006, dated 2012)

What was measured:
[1] = tested on: Male Sprague-Dawley rats; test: Glucose stimulated insulin secretion and glucose disposal in rats, intravenous glucose tolerance test; assay type: in vivo; conditions: 10 mg/kg oral, 0.5 g/kg dextrose i.v. 90 min after dosing, vs vehicle
Protocol: Male Sprague-Dawley rats (Charles River Laboratories, USA) had catheters surgically implanted into the jugular vein and allowed to recover for one week. On the day of the experiment, food was removed in the morning and animals were randomly assigned to two treatment groups, vehicle (n=8) or GPR119 agonist (Example 1; n=9). In the afternoon, baseline blood samples were collected prior to, and 90 minutes following oral administration of either vehicle (0.5% HPMC/0.1% Tween80) or 10 mg/kg Example 1. The intravenous glucose tolerance test was initiated immediately after the 90 minute blood sample by intravenous infusion of 0.5 g/kg dextrose over 15-30 seconds into the jugular vein, Blood samples were collected from the jugular vein at 2, 5, 10, 15, and 30 min and treated as described for the hyperglycemic clamp. Serum was collected for analysis of glucose levels using an Olympus AU640 clinical chemistry analyzer (Olympus America Inc, Melville, N.Y.) and insulin levels by an electrochemoluminescence assay (Bioveris, Gaithersburg Md.). The rats were sacrificed at the end of the study by an overdose of Nembutal.
FIG. 14 and FIG. 15 show circulating plasma glucose and insulin concentrations at each time point throughout the intravenous glucose tolerance test. The data is represented as the average glucose and insulin levels±SEM for all animals in for the two treatment groups.

[2] = tested on: C57BL/6 male mice; test: Effect of a GPR119 agonist on circulating GLP-1 and GIP in vivo in mice; conditions: fasted mice, 1, 3, 10, 30 or 60 mg/kg oral gavage, 60 min after dosing
Protocol: Ten weeks old C57BL/6 male mice (Taconic Farms, USA) were fasted overnight then randomly distributed into 6 treatment groups (n=10 mice per treatment group) receiving either vehicle (0.5% HPMC/0.1% Tween80), or a GPR119 agonist (Example 1) at five different doses (1, 3, 10, 30 or 60 mg/kg) by oral gavage. All animals were dosed with a volume of 10 mL/kg of their designated treatment. Sixty minutes after the oral gavage the mice were anesthetized using isofluorane for collection of blood samples by cardiac puncture. All mice were euthanized by cervical dislocation immediately following the cardiac puncture. […] Total GLP-1 levels were determined using a MULTI-ARRAY® electrochemoluminescence assay from Meso Scale Discovery (Cat #K110-FAC-2; Gaithersburg, Md.). Total GIP levels were determined using an ELISA assay (Cat# EZRMGIP-55K, Linco Diagnostic Services, St Charles, Mo.).
Data is represented as box plots summarizing the distribution of individual data point for each treatment group. […] FIG. 1 and FIG. 2 show total GLP-1 and total GIP respectively measured in circulation following administration of vehicle or a GPR119 agonist (Example 1) at doses as indicated.

[3] = tested on: Male Wistar rats; test: Glucose stimulated insulin secretion in rats, hyperglycemic clamp; assay type: in vivo
Protocol: Male Wistar rats (Taconic farms, USA), weighing 300-350 gram, had catheters surgically implanted into the jugular and femoral veins and allowed to recover for one week following the surgery. On the day before the experiment, food was removed in the afternoon for an overnight fast. The following morning animals were randomly assigned to three treatment groups, vehicle (n=19) and either 1 mg/kg (n=8) or 10 mg/kg (n=8) of a GPR119 agonist (Example 1), and baseline blood samples were collected from the jugular vein. Animals were then administered either vehicle or Example 1 by oral gavage. A second blood sample was collected approximately 90 minutes after the oral gavage immediately prior to starting the hyperglycemic clamp. The clamp was initiated by infusing an empirically determined glucose bolus over 15-30 seconds into the femoral vein, followed by a variable rate glucose infusion adjusted to achieve a stable plasma glucose level of 190-210 mg/dl. After infusion of the glucose bolus, blood samples were collected every 5 minutes for glucose measurements. Samples for C-peptide level were collected a 2, 5, 10, 15, 20, 25, 30, 46, 60, 90 and 120 minutes during the hyperglycemic clamp. C-peptide was measured as a surrogate for insulin as it is co-secreted with insulin in equimolar amount with lower hepatic clearance, thus a better reflection of insulin secretion from the pancreatic β-cells. All blood samples were placed in individual tubes containing a gel clot activator (Cat # T-MG, Terumo Medial Corporation, Elkton, Md.) and allowed to clot in room temperature for 20 min before centrifugation and collection of serum. Glucose levels were measured using an Olympus AU640 analyzer (Olympus America Inc, Melville, N.Y.), and C-peptide levels by an RIA (Linco Diagnostic services, St Charles, Mo.). The rats were sacrificed at the end of the study by an overdose of Nembutal.
There was no difference in plasma glucose levels between treatment groups. […] The characteristic biphasic insulin secretion response (measured as an increase in C-peptide levels) elicited by the rapid increase in plasma glucose levels is shown in FIG. 13, with the first phase occurring within the first 5 minutes and the second phase from 15 minutes and beyond.

[4] = tested on: transgenic wild type (WT) and GPR119 knock-out (KO) mice; test: Oral glucose tolerance in wild type and GPR119 knockout mice; assay type: in vivo; conditions: 2 g/kg dextrose oral 1 h after dosing
Protocol: Male transgenic wild type (WT) and GPR119 knock-out (KO) mice (Charles River Laboratories, USA), at an age of 12 weeks, were fasted overnight (approximately 15 hrs) then randomly grouped (n=8-10) to receive vehicle (0.5% HPMC/0.1% Tween80), a GPR119 agonist (30 mg/kg) or a positive control (10 mg/kg), the DPPIV inhibitor as described above. Vehicle or compounds were delivered orally by oral gavage at a volume of 10 mL/kg, and the tip of tail was nicked using a scalpel to allow whole blood glucose measurements. One hour after administration of vehicle or test compounds, dextrose was administered orally at 2 g/kg. Whole blood glucose levels were measured prior to, and 10, 20, 30, 45, 60, 90 and 120 min after the oral glucose load using a Glucometer (Freestyle, Therasense) from the tip of tail. At the end of the study the mice were sacrificed by cervical dislocation.
The glucose tolerance was calculated as the area under the glucose curve (AUC). Data is represented as box plots summarizing the distribution of data for each treatment group, as described above. Horizontal lines represent the mean data.

## CC(C)OC(=O)N1CCC(Oc2ncnc3c2CCN3c2ccc(S(C)(=O)=O)cc2F)CC1 [Example 1, 1-Methylethyl 4-({7-[2-fluoro-4-(methylsulfonyl)phenyl]-6,7-dihydro-5H-pyrrolo[2,3-d]pyrimidin-4-yl}oxy)-1-piperidinecarboxylate]
[1]
  area under the glucose curve (AUC): significantly reduced
  area under the insulin curve: significantly increased
  peak (2 minute) insulin response: significantly increased
  rate of glucose elimination: significantly increased
[2]
  circulating total GIP levels: dose dependent increase
  circulating total GLP-1 levels: dose dependent increase
[3]; 10 mg/kg oral, compared to 1 mg/kg or vehicle
  glucose infusion rates (GIR) required to sustain the hyperglycemic clamp: required more exogenous glucose
[3]; 10 mg/kg oral, compared to vehicle or 1 mg/kg, throughout the hyperglycemic clamp
  C-peptide levels (surrogate for insulin secretion): significantly increased
[3]; 1 or 10 mg/kg oral vs vehicle, clamp started about 90 min after gavage
  plasma glucose levels achieved during the hyperglycemic clamp: no difference
[3]; hyperglycemic clamp
  first (0-5 min) and second phase (15-90 min) glucose stimulated insulin secretory response: augments
[4]; GPR119 KO mice, 30 mg/kg oral
  glucose tolerance: no effect
[4]; WT mice, Example 1 30 mg/kg, DPPIV inhibitor 10 mg/kg oral
  reduction of total glucose AUC: 28%
